The source of these data is patent publication US20190307776A1, “AZA-S[…] HUMAN IMMUNODEFICIENCY VIRUS REPLICATION” (priority 2016, published 2019).

For the test, the system named is recombinant NL4-3 virus. Briefly: HIV cell culture assay. The test is classed as cell-based. The conditions noted are these: Human immunodeficiency virus 1, NL43, MT2. The protocol:
HIV cell culture assay—MT-2 cells and 293T cells were obtained from the NIH AIDS Research and Reference Reagent Program. MT-2 cells were propagated in RPMI 1640 media supplemented with 10% heat inactivated fetal bovine serum, 100 […]. The 293T cells were propagated in DMEM media supplemented with 10% heat inactivated fetal bovine serum (FBS), 100 units/ml penicillin G and 100 μg/ml streptomycin. The proviral DNA clone of NL4-3 was obtained from the NIH AIDS Research and Reference Reagent Program. A recombinant NL4-3 virus, in which a section of the nef gene from NL4-3 was replaced with the Renilla luciferase gene, was used as a reference virus. In addition, residue Gag P373 was converted to P373S. Briefly, the recombinant virus was prepared by transfection of the altered proviral clone of NL4-3. Transfections were performed in 293T cells using LipofectAMINE PLUS from Invitrogen (Carlsbad, Calif.), according to manufacturer's instruction. The virus was titered in MT-2 cells using luciferase enzyme activity as a marker. Luciferase was quantitated using the Dual Luciferase kit from Promega (Madison, Wis.), with modifications to the manufacturer's protocol. The diluted Passive Lysis solution was pre-mixed with the re-suspended Luciferase Assay Reagent and the re-suspended Stop & Glo Substrate (2:1:1 ratio). Fifty (50) μL of the mixture was added to each aspirated well on assay plates and luciferase activity was measured immediately on a Wallac TriLux (Perkin-Elmer). Antiviral activities of inhibitors toward the recombinant virus were quantified by measuring luciferase activity in cells infected for 4-5 days with NLRluc recombinants in the presence serial dilutions of the inhibitor.
Usually EC50 stands for the concentration giving half of the maximal effect. Regarding `C=C(C)[C@@H]1CC[C@]2(CO)CC[C@]3(C)[C@H](CC[C@@H]4[C@@]5(C)CCCN(S(=O)(=O)c6ccc(CC(=O)O)cc6)C(C)(C)C5CC[C@]43C)[C@@H]12` (stereo partly drawn) [Example 15, 2-(4-(((7aR,7bR,9aS,12R,12aR,12bR,14aR,14bR)-9a-(hydroxymethyl)-5,5,7a,7b,14b-pentamethyl-12-(prop-1-en-2-yl)icosahydrocyclopenta[7,8]phenanthro[2,1-c]azepin-4(1H)-yl)sulfonyl)phenyl)acetic acid], the half-maximal effective concentration (EC50) is above 8 µM.

`C=C(C)[C@@H]1CC[C@]2(CO)CC[C@]3(C)[C@H](CC[C@@H]4[C@@]5(C)CCCN(S(=O)(=O)c6ccc(C)c(C(=O)O)c6)C(C)(C)C5CC[C@]43C)[C@@H]12` (stereo partly drawn) [Example 16, 5-(((7aR,7bR,9aS,12R,12aR,12bR,14aR,14bR)-9a-(hydroxymethyl)-5,5,7a,7b,14b-pentamethyl-12-(prop-1-en-2-yl)icosahydrocyclopenta[7,8]phenanthro[2,1-c]azepin-4(1H)-yl)sulfonyl)-2-methylbenzoic acid]: the half-maximal effective concentration (EC50) was above 8 µM.

With `C=C(C)[C@@H]1CC[C@]2(CO)CC[C@]3(C)[C@H](CC[C@@H]4[C@@]5(C)CCN(S(=O)(=O)c6cccc(C(=O)O)c6)C(C)(C)C5CC[C@]43C)[C@@H]12` (stereo partly drawn) [Example 17, 3-(((6aR,6bR,8aS,11R,11aR,11bR,13aR,13bR)-8a-(hydroxymethyl)-4,4,6a,6b,13b-pentamethyl-11-(prop-1-en-2-yl)icosahydro-3H-cyclopenta[5,6]naphtho[2,1-f]isoquinolin-3-yl)sulfonyl)benzoic acid], the 50% effective concentration (EC50) was found to be 4.94 µM.

`C=C(C)[C@@H]1CC[C@]2(CO)CC[C@]3(C)[C@H](CC[C@@H]4[C@@]5(C)CCN(S(=O)(=O)c6ccc(/C=C/C(=O)O)cc6)C(C)(C)C5CC[C@]43C)[C@@H]12` (stereo partly drawn) [Example 18, (E)-3-(4-(((6aR,6bR,8aS,11R,11aR,11bR,13aR,13bR)-8a-(hydroxymethyl)-4,4,6a,6b,13b-pentamethyl-11-(prop-1-en-2-yl)icosahydro-3H-cyclopenta[5,6]naphtho[2,1-f]isoquinolin-3-yl)sulfonyl)phenyl)acrylic acid]: the concentration giving a half-maximal response (EC50) was found to be 4.2 µM.

As to `C=C(C)[C@@H]1CC[C@]2(CO)CC[C@]3(C)[C@H](CC[C@@H]4[C@@]5(C)CCN(S(=O)(=O)c6ccc(CC(=O)O)cc6)C(C)(C)C5CC[C@]43C)[C@@H]12` (stereo partly drawn) [Example 19, 2-(4-(((6aR,6bR,8aS,11R,11aR,11bR,13aR,13bR)-8a-(hydroxymethyl)-4,4,6a,6b,13b-pentamethyl-11-(prop-1-en-2-yl)icosahydro-3H-cyclopenta[5,6]naphtho[2,1-f]isoquinolin-3-yl)sulfonyl)phenyl)acetic acid], the EC50 is above 8 µM.

`C=C(C)[C@@H]1CC[C@]2(CO)CC[C@]3(C)[C@H](CC[C@@H]4[C@@]5(C)CCN(S(=O)(=O)c6ccc(C(=O)O)cc6)C(C)(C)C5CC[C@]43C)[C@@H]12` (stereo partly drawn) [Example 20, 4-(((6aR,6bR,8aS,11R,11aR,11bR,13aR,13bR)-8a-(hydroxymethyl)-4,4,6a,6b,13b-pentamethyl-11-(prop-1-en-2-yl)icosahydro-3H-cyclopenta[5,6]naphtho[2,1-f]isoquinolin-3-yl)sulfonyl)benzoic acid]: the EC50 came to 3.1 µM.

As for `C=C(C)[C@@H]1CC[C@]2(CO)CC[C@]3(C)[C@H](CC[C@@H]4[C@@]5(C)CCN(S(=O)(=O)c6ccsc6C(=O)O)C(C)(C)C5CC[C@]43C)[C@@H]12` (stereo partly drawn) [Example 21, 3-(((6aR,6bR,8aS,11R,11aR,11bR,13aR,13bR)-8a-(hydroxymethyl)-4,4,6a,6b,13b-pentamethyl-11-(prop-1-en-2-yl)icosahydro-3H-cyclopenta[5,6]naphtho[2,1-f]isoquinolin-3-yl)sulfonyl)thiophene-2-carboxylic acid], the concentration giving a half-maximal response (EC50) is above 8 µM.
